Test results taken from article PMC12571071, “Preventing neuropathy and improving anticancer chemotherapy with a carbazole-based compound” (Science Advances, 2025).

Key:
HeLa cells [1] = test: HeLa cell viability (PrestoBlue) assay, 72 h; type: cell-based, human; conditions: HeLa cells
Experimental: The human HeLa cell line was tested negative for mycoplasma contamination. HeLa cells were grown in RPMI 1640 medium supplemented with penicillin/streptomycin (100 μg/ml) and 10% FBS and maintained in a humidified incubator at 37°C and 5% CO2.
Cell viability was analyzed using the colorimetric PrestoBlue assay. Cells were seeded in 96-well microplates at a density of 7500 cells per well, allowed to adhere for 24 hours, and treated for 72 hours with either DMSO or drugs at indicated concentrations. PrestoBlue (10 μl) was then added to each well, followed by a 30-min incubation. Fluorescence was measured using a FLUOstar Optima microplate reader (excitation, 544 nm; emission, 580 nm; BMG Labtech).

NAMPT [2] = target: T1, NAMPT (Homo sapiens, UniProt P43490); test: NAMPT activity assay (coupled recombinant enzyme kit); type: biochemical; set-up: purchased Abcam ab221819; conditions: OD450 at 60 min, normalized by subtraction of DMSO value
From the text: We next tested whether Carba1 could activate NAMPT in vitro. To that aim, we used a commercial recombinant human enzyme assay containing four enzymes: NAMPT, NAM nucleotide adenylyltransferase 1 (NMNAT1), alcohol dehydrogenase (ADH), and diaphorase (see Materials and Methods). In the presence of NAM and 5-phosphoribosyl-1-pyrophosphate (PRPP), NAMPT converts NAM to NMN, which is then converted into NAD^+ by NMNAT1, while ADH converts NAD^+ to NADH. Then, into a coupled-reaction, diaphorase converts NADH into NAD^+ and tetrazolium salt WST-1 {4-[3-(4-iodophenyl)-2-(4-nitro-phenyl)-2H-5-tetrazolio]-1,3-benzene sulfonate} to formazan, which can be detected at optical density at 450 nm (OD450). In practice, we proceeded in two steps. First, Carba1 and the different tested compounds were incubated for 15 min with NAMPT, NMNAT1, NAM, and PRPP to allow NAD^+ production. The reaction was then stopped with FK866 before adding ADH and diaphorase to convert the NAD^+ produced to NADH, and absorbance was monitored at regular intervals.
NAMPT activity was measured using the commercial kit, NAMPT Activity Assay, according to the manufacturer’s instructions. […] A mixture of water-soluble tetrazolium salts (WST-1), ADH, diaphorase, and ethanol was added and the absorbance (OD450) measured for 90 min using the microplate reader ClarioSTAR (BMG Labtech).
Target sequence in this assay (P43490 whole entry): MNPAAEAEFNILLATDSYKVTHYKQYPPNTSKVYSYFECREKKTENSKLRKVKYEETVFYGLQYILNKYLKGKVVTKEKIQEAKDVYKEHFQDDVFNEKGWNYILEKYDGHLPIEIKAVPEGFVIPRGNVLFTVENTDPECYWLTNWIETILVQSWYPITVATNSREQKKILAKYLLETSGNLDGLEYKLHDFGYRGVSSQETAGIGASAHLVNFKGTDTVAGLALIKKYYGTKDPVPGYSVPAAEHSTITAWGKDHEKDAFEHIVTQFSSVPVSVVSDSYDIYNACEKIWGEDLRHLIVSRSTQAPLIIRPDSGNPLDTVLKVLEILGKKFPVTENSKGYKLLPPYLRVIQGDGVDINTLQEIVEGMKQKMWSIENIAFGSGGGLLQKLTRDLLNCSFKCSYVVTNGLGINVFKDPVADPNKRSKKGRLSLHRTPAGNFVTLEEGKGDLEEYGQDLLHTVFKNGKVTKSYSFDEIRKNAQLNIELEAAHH

HeLa cells [3] = test: NAD(P)H autofluorescence imaging in live HeLa cells; type: cell-based, human; conditions: 5 and 10 nM FK866, 24-hour incubation
Experimental: HeLa cells were seeded in four-chamber Labtek plates at 10,000 cells per well. After 48 hours, cells were preincubated with or without 12 μM Carba1 for 2 hours before addition of FK866 (5 and 10 nM). Drugs were added to phenol red–free DMEM medium, supplemented with 10% FBS 1% penicillin/streptomycin. After 24 hours of drug incubation, cells were imaged using a confocal microscope (LSM 710, Zeiss) with a two-photon excitation at 700 nm (Chameleon Vision Laser, Coherent) and a 40×/1.2 water-immersion objective. Detection was performed in single-photon mode using an avalanche photodiode detector (ConfoCor 3). NAD(P)H signal intensity was quantified as the mean signal per cell using ImageJ and normalized to the cell area.

carbonic anhydrase (CA) = test: AS-MS binding assay, carbonic anhydrase (negative control); conditions: 10 μM compound, 3 μM carbonic anhydrase
Experimental: (§1) To this end, Carba1 or FK866 (positive control of NAMPT binding) was first incubated with NAMPT or carbonic anhydrase (CA; negative control). Protein-ligand complexes were separated from the unbound compounds by size exclusion chromatography (SEC). To quantify the protein-bound fraction, the complexes were then dissociated using reverse-phase chromatography, and the compounds were analyzed and quantified by mass spectrometry. By comparing the amounts of compound before (preSEC) and after (postSEC) SEC in the presence of CA or NAMPT, we assessed their ability to selectively bind to NAMPT.
(§2) AS-MS was used to assess compound binding to NAMPT. AS-MS was performed by Edelris SAS (www.edelris.com/), which has developed the commercial AS-MS service “EDEN platform,” based on ([71]). Conditions consisted of protein (NAMPT and CA) at 3 μM and compounds (Carba1 and FK866) at 10 μM dissolved in corporate buffer.

NAMPT [4] = target: T1, NAMPT; test: AS-MS binding assay, NAMPT; conditions: 10 μM compound, 3 μM NAMPT
Experimental: as §1, with “spectrometry.” for “spectrometry. By comparing the amounts of compound before (preSEC) and after (postSEC) SEC in the presence of CA or NAMPT, we assessed their ability to selectively bind to NAMPT.”
as §2
Target sequence in this assay (P43490 whole entry, species assumed): as the sequence (P43490 whole entry) above

GI50 (HeLa cells [1]; Homo sapiens, read-out: GI50 of FK866 alone) [nM]	Compound	relief of FK866 cytotoxicity (HeLa cells [1]; coadministration with FK866)	activation of NAMPT in vitro (NAMPT [2])	reduction of NAD(P)H production (HeLa cells [3])	binding to CA (AS-MS) (carbonic anhydrase (CA))	binding to NAMPT (AS-MS) (NAMPT [4])
	OC(CNc1ccccc1)Cn1c2ccc(Br)cc2c2cc(Br)ccc21 (stereo not drawn) [Compound P7C3, reference compound]	unable to counteract the toxic effect of FK866	No significant effect			
2.4 ± 0.09	O=C(/C=C/c1cccnc1)NCCCCC1CCN(C(=O)c2ccccc2)CC1 [FK866, reference compound]			~ 20%	neither FK866 nor Carba1 was found to bind CA	recovered in the fraction containing NAMPT
